Assay results reported in patent publication US10632101B2, “Methods and compositions for supporting endogenous systems related to life span” (USANA Health Sciences, Inc., priority 2016, dated 2020).
One block for each compound: values may come before it.

Experiments:
mTOR = biological target: T1, mTOR (Homo sapiens, UniProt P42345); settings: cited from earlier work; for mTOR inhibition: applied to isolated cells in culture
T1 construct: host or cells: isolated cells in culture (not specified)

human NF-κB = assay: NF-κB reporter cell assay, antagonist mode; type: cell-based
human PPARδ = biological target: T2, human PPARδ (Homo sapiens, UniProt Q03181); assay: PPARδ reporter cell assay, agonist mode; type: cell-based
T2 construct: expressed in transfected cells; host or cells: CHO
T2 sequence (Q03181 211-439 limits assumed): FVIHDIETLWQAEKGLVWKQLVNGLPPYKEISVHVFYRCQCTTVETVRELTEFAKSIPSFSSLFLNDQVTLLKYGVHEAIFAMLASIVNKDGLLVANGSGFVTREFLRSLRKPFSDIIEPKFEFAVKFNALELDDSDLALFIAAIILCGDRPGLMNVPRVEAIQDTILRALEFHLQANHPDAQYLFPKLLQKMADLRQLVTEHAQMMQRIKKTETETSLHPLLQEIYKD

C. elegans strain CB5586 = assay: Phenotypic lifespan screening in C. elegans; type: in vivo; settings: 0.1 and 10 mg/ml tested
Description: Dilutions of the test formulations were applied to individual populations of C. elegans and the lifespan of each population was monitored. Any changes in the lifespan of an individual population compared to a control population were recorded and correlated to the respective test formulation (N356 or N357) and the respective dilution (0.1 mg/ml, 1 mg/ml, and 10 mg/ml).
The N256 and N357 formulations were each prepared as individual 100 mg/ml stock solutions in dimethyl sulfoxide (DMSO). Serial dilutions of each stock solution were then prepared at 0.1 mg/ml, 1 mg/ml, and 10 mg/ml in DMSO. Control solutions of DMSO only were also prepared. Synchronous aged adult populations of C. elegans strain CB5586 worms were prepared. The CB5586 strain comprises a pharyngeal GFP (green fluorescent protein) tag and a mutation in the bus-5 gene. The pharyngeal GFP tag allows for fluorescent images of the worm populations to be taken. The mutation in the bus-5 gene causes the loss of normal cuticle antigens that permits the cuticle of the worms to become permeable to the test formulations and allow direct uptake of the test formulations to avoid interaction of the test formulations with protective mechanisms of the gut channel. Each serial dilution of each test formulation was added to a separate population of the prepared worms. The control solutions were also added to separate populations of the prepared worms. The populations of the prepared worms were then maintained on standard nematode growth media (NGM) agar plates at 20° C. with sufficient food (Escherichia coli strain OP-50).
Each worm population was then monitored by fluorescent imaging to determine the number of living and dead worms as a function of time. The fluorescent imaging was analyzed by software that recognized and counted worms based on their fluorescent intensity compared to background fluorescence. […] The ability to distinguish between living and dead worms allowed the number of living worms and a cumulative number of dead worms to be monitored against time. Worm populations from a selection of fluorescent images were manually checked to verify that the software had accurately counted the number of living and dead worms.
The counts of the living and dead worms as a function of time were then analyzed for each of the worm populations and used to prepare Kaplan-Meier survival curves and associated statistics for each of the worm populations. […] The median lifespan is shown as the length of time after the last mitotic division that 50% of the test population remains viable when compared to the control population. The maximum lifespan extension is shown as the length of time after the last mitotic division that 5% of the test population remains viable when compared to the control population.
The counts of the living and dead worms as a function of time and the Kaplan-Meier survival curves and the associated statistics were then analyzed for each of the worm populations. The analysis included determining mean and median lifespan. The analysis included a non-parametric test, the Log-Rank test, which compares two survival functions for the overall lifespan assay and provides a reliable p-value summarizing the whole experiment. The analysis also included Fisher's Exact Test that calculated the significance of survival function comparisons at multiple specific time points throughout the experiment, rather than for the overall lifespan. The results of the analysis are shown below in Tables 10-17.
Phenotypic screening was carried out as described in EXAMPLE 2 for various individual compounds of the N357 formulation. […] Alpha lipoic acid was sourced from PureBulk™ USA as a racemic mix of R and S stereoisomers and was assigned a sample number of N198. Hesperidin was sourced from Sigma Aldrich at ≥80% purity and was assigned a sample number of N347. […]

[1] = tested on: NF-κB reporter cells (HEK293); assay: Live cell multiplex read-out in the NF-κB antagonist assay; type: cell-based, human; settings: 1.42 μg/ml
Description: Various receptor assays were carried out for test compounds corresponding to ingredients of the nutritional supplement composition. In general, the receptor assays utilized reporter cells that either expressed a native receptor or a receptor hybrid. The receptor hybrids were engineered so that the native N-terminal DNA binding domain (DBD) was replaced with a yeast Gal4 DBD. The reporter cells expressed a hybrid receptor comprising either the native receptor (Nrf2 and NF-κB) or the N-terminal Gal4 DNA binding domain fused to the ligand binding domain of the specific human nuclear receptor (PPARα, PPARδ, and PPARγ). The reporter gene (e.g., firefly luciferase) was functionally linked to either upstream receptor-specific response elements (GRE) or the Gal4 upstream activation sequence (UAS). A summary of the receptors, the reporter cells used for each particular receptor assay, and the reference compounds used to confirm performance of the receptor assays are indicated below in Table 4.
A vehicle control was prepared. […] After incubation, fluorescence was measured to determine a relative number of live cells per test well.

Nrf2 = Nrf2 signaling fluorescent reporter assay in human retinal epithelial cell line; type: cell-based; settings: 100 and 30 μM
Description: The assays were carried out with a fluorescent reporter assay that utilized a human retinal epithelial cell line. The assays also included validation by RT-PCR (reverse transcription polymerase chain reaction) of Nrf2 target genes. The human retinal epithelial cell line was purchased from ATCC (American Type Cell Culture, Manassas, Va.) and was configured to function as a fluorescent reporter assay. Test solutions of each of the alpha lipoic acid, resveratrol, curcumin, EGCG, Olivol®, rutin, quercetin, and hesperetin were prepared by serial dilution. Control solutions were also prepared. Positive control solutions of a known Nrf2 agonist, L-sulphoraphane was also prepared. Each test solution was then assayed for Nrf2 signaling activity using the fluorescent reporter assay and compared to control assays. The positive control solutions were also tested.

human PPARγ = biological target: T3, human PPARγ (Homo sapiens, UniProt P37231); assay: PPARγ reporter cell assay, agonist mode; type: cell-based
T3 construct: expressed in transfected cells; host or cells: CHO
T3 sequence (P37231 238-503 limits assumed): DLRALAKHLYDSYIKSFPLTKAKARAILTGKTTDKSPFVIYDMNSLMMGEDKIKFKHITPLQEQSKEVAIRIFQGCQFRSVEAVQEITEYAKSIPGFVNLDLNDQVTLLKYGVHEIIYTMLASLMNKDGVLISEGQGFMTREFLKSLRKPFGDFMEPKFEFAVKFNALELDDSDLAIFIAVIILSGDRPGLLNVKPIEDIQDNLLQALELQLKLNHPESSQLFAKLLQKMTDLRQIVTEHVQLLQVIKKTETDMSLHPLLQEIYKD

human PPARα = biological target: T4, human PPARα (Homo sapiens, UniProt Q07869); assay: PPARα reporter cell assay, agonist mode; type: cell-based
T4 construct: expressed in transfected cells; host or cells: CHO
T4 sequence (Q07869 239-466 limits assumed): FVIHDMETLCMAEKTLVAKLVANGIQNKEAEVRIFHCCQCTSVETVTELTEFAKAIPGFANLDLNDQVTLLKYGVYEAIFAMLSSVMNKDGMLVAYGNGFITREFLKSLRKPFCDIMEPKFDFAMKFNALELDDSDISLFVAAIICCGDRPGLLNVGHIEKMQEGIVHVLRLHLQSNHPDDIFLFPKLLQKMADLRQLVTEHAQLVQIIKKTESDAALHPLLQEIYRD

Structure (SMILES): Cn1c(=O)c2c(ncn2C)n(C)c1=O [caffeine]
mTOR inhibition (mTOR): inhibit mTOR
mTOR inhibition, mitophagy and mitochondrial turnover (mTOR): inhibit mTOR, up-regulate mitophagy, and increase the rate of mitochondrial turnover

Structure (SMILES): C[C@@H]1O[C@@H](OC[C@H]2O[C@@H](Oc3c(-c4ccc(O)c(O)c4)oc4cc(O)cc(O)c4c3=O)[C@H](O)[C@@H](O)[C@@H]2O)[C@H](O)[C@H](O)[C@H]1O [Rutin, 2-(3,4-dihydroxyphenyl)-5,7-dihydroxy-3-[α-L-rhamnopyranosyl-(1→6)-β-D-glucopyranosyloxy]-4H-chromen-4-one]
NF-κB % Inhibition (human NF-κB; 1.11 μg/ml): 10%

PPARδ Fold-Activation (human PPARδ; 1.42 μg/ml): 1.5
PPARδ Fold-Activation (human PPARδ; 4.25 μg/ml): 1.1
PPARδ Fold-Activation (human PPARδ; 12.7 μg/ml): 0.80
PPARδ Fold-Activation (human PPARδ; 38.23 μg/ml): 0.52
PPARδ Fold-Activation (human PPARδ; 114.70 μg/ml): 0.29
PPARγ Fold-Activation (human PPARγ; 1.42 μg/ml): 1.1
PPARγ Fold-Activation (human PPARγ; 4.25 μg/ml): 1.1
PPARγ Fold-Activation (human PPARγ; 12.7 μg/ml): 1.3
PPARγ Fold-Activation (human PPARγ; 38.23 μg/ml): 1.4
PPARγ Fold-Activation (human PPARγ; 114.70 μg/ml): 3.4
PPARα Fold-Activation (human PPARα; 1.42 μg/ml): 1.4
PPARα Fold-Activation (human PPARα; 4.25 μg/ml): 1.3
PPARα Fold-Activation (human PPARα; 12.7 μg/ml): 1.2
PPARα Fold-Activation (human PPARα; 38.23 μg/ml): 1.5
PPARα Fold-Activation (human PPARα; 114.70 μg/ml): 2.3
Structure (SMILES): O=C(O)CCCCC1CCSS1 (racemic) [Alpha lipoic acid, alpha lipoic acid]
NF-κB % Inhibition (human NF-κB; 4.25 μg/ml): −0.70%
effect on chronological lifespan (C. elegans strain CB5586): significant positive and dose-dependent increase of chronological lifespan
NF-κB % Live Cell [1]: 100%
activation of Nrf2 (Nrf2): demonstrated activation of Nrf2

Structure (SMILES): O=C(O[C@@H]1Cc2c(O)cc(O)cc2O[C@@H]1c1cc(O)c(O)c(O)c1)c1cc(O)c(O)c(O)c1 [EGCG, epigallocatechin gallate]
NF-κB % Inhibition (human NF-κB; 0.033 μg/ml): 10%
NF-κB % Inhibition (human NF-κB; 0.098 μg/ml): 18%
NF-κB % Inhibition (human NF-κB; 0.30 μg/ml): 0.10%
NF-κB % Inhibition (human NF-κB; 0.89 μg/ml): 8.4%
NF-κB % Inhibition (human NF-κB; 2.67 μg/ml): −15%
NF-κB % Inhibition (human NF-κB; 8 μg/ml): −29%
mTOR inhibition (mTOR): inhibit mTOR
mTOR inhibition, mitophagy and mitochondrial turnover (mTOR): inhibit mTOR, up-regulate mitophagy, and increase the rate of mitochondrial turnover
